Laboratory results from patent publication US10508077B2 (FORMA Therapeutics, Inc., priority 2015, dated 2019).

molecular target: T1, Full length human recombinant HDAC8 protein (Homo sapiens, UniProt Q9BY41); assay: In vitro histone deacetylase assay: enzymatic HDAC8 assay, electrophoretic mobility shift; assay type: biochemical; conditions: substrate RHKK(Ac)-NH2, 1 nM enzyme, compounds listed under IC50 range headings
T1 construct: Full length human recombinant HDAC8 protein was expressed in baculoviral system; made in house
T1 sequence (Q9BY41 1-377): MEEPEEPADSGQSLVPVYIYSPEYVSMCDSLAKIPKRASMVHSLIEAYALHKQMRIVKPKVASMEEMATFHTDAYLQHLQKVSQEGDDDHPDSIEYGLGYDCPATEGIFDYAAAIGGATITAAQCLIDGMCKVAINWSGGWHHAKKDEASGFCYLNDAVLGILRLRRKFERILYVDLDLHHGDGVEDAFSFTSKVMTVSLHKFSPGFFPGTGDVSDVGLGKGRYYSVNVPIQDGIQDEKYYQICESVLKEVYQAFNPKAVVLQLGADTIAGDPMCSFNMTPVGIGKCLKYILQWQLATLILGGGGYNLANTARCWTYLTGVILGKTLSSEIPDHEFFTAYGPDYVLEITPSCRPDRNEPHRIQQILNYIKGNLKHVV
Description: The enzymatic HDAC8 assay was performed using electrophoretic mobility shift assay. Full length human recombinant HDAC8 protein was expressed in baculoviral system and purified by affinity chromatography. The enzymatic reactions were assembled in 384 well plates in a total volume of 25 μL in a reaction buffer composing: 100 mM HEPES, pH7.5, 25 mM KC, 0.1% bovine serum albumin, 0.01% Triton X-100, 1% DMSO (from compounds) 2 μM of the fluorescently labeled peptide substrate and enzyme. The enzyme was added at a final concentration of 1 nM. The peptide substrate RHKK(Ac)-NH2 was used. The compounds were tested at 12 concentrations spaced by 3× dilution intervals. Negative control samples (0%-inhibition in the absence of inhibitor) and positive control samples (100%-inhibition) were assembled in replicates of four in each assay plate. The reactions were incubated at 25° C. and quenched by the addition of 45 μL of termination buffer (100 mM HEPES, pH 7.5, 0.01% Triton X-100, 0.05% SDS).
The terminated assay plates were analyzed on LabChip® 3000 microfluidic electrophoresis instrument (Perkin Elmer/Caliper Life Sciences). The fluorescence intensity of the electrophoretically separated de-acetylated product and substrate peptide was measured. Activity in each sample was determined as the product to sum ratio (PSR): P/(S+P), where P is the peak height of the product peptide and S is the peak height of the substrate peptide. Percent inhibition (Pinh) is determined using the following equation: Pinh=(PSR0%−PSRinh)/(PSR0%−PSR100%)*100, where PSRinh is the product sum ratio in the presence of inhibitor, PSR0% is the average product sum ration in the absence of inhibitor and PSR 100% is the average product sum ratio in 100%-inhibition control samples. The IC50 values of inhibitors were determined by fitting the %-inhibition curves with 4 parameter dose-response model using XLfit 4 software. Ranges of IC50 values for compounds of the invention are disclosed in Table 26.

Row | IC50 [nM] | SMILES
1 | < 1000 | CC(C(=O)Nc1ccccc1/C=C/C(=O)NO)N1CCS(=O)(=O)CC1 (stereo not shown) [Example I-63, (E)-3-(2-(2-(1,1-dioxidothiomorpholino)propanamide)phenyl)-N-hydroxyacrylamide]
2 | < 1000 | O=C(/C=C/c1ccccc1NC(=O)C1(c2ccccc2)CC1)NO [Example I-64, (E)-N-(2-(3-(hydroxyamino)-3-oxoprop-1-en-1-yl)phenyl)-1-phenylcyclopropane-1-carboxamide]
3 | < 1000 | O=C(/C=C/c1ccccc1NC(=O)c1cc2n(n1)CCC2)NO [Example I-74, (E)-N-(2-(3-(hydroxyamino)-3-oxoprop-1-en-1-yl)phenyl)-5,6-dihydro-4H-pyrrolo[1,2-b]pyrazole-2-carboxamide]
4 | < 1000 | Cn1nc(C(F)(F)F)cc1-c1ccc(C(=O)Nc2ccccc2/C=C/C(=O)NO)s1 [Example I-78, (E)-N-(2-(3-(hydroxyamino)-3-oxoprop-1-en-1-yl)phenyl)-5-(1-methyl-3-(trifluoromethyl)-1H-pyrazol-5-yl)thiophene-2-carboxamide]
5 | < 1000 | Cc1cc(C(=O)Nc2ccccc2/C=C/C(=O)NO)n(C)n1 [Example I-80, (E)-N-(2-(3-(hydroxyamino)-3-oxoprop-1-en-1-yl)phenyl)-1,3-dimethyl-1H-pyrazole-5-carboxamide]
6 | < 1000 | O=C(/C=C/c1ccccc1NC(=O)c1cc2ccccn2n1)NO [Example I-82, (E)-N-(2-(3-(hydroxyamino)-3-oxoprop-1-en-1-yl)phenyl)pyrazolo[1,5-a]pyridine-2-carboxamide]
7 | < 1000 | O=C(/C=C/c1ccccc1NCc1ccc(Cl)cc1)NO [Example I-86, (E)-3-(2-((4-chlorobenzyl)amino)phenyl)-N-hydroxyacrylamide]
8 | < 1000 | CC(C)c1ccc(CNc2ccccc2/C=C/C(=O)NO)nc1 [Example I-87, (E)-N-hydroxy-3-(2-(((5-isopropylpyridin-2-yl)methyl)amino)phenyl)acrylamide]
9 | < 1000 | O=C(/C=C/c1ccccc1NCc1ccnc2ccccc12)NO [Example I-88, (E)-N-hydroxy-3-(2-((quinolin-4-ylmethyl)amino)phenyl)acrylamide]
10 | < 1000 | COc1cncc(CNc2ccccc2/C=C/C(=O)NO)c1 [Example I-90]
11 | < 1000 | O=C(/C=C/c1ccccc1NCc1ccc(-c2ccccn2)cc1)NO [Example I-92, (E)-N-hydroxy-3-(2-((4-(pyridin-2-yl)benzyl)amino)phenyl)acrylamide]
12 | < 1000 | O=C(/C=C/c1ccccc1NCc1ccc(-c2ccccc2)nc1)NO [Example I-99, (E)-N-hydroxy-3-(2-(((6-phenylpyridin-3-yl)methyl)amino)phenyl)acrylamide]
13 | < 1000 | O=C(/C=C/c1ccccc1NCc1cc2cccnc2[nH]1)NO [Example I-102, (E)-3-(2-(((1H-pyrrolo[2,3-b]pyridin-2-yl)methyl)amino)phenyl)-N-hydroxyacrylamide]
14 | < 1000 | CC(C)Nc1ncc(CNc2ccccc2/C=C/C(=O)NO)cn1 [Example I-105, (E)-N-hydroxy-3-(2-(((2-(isopropylamino)pyrimidin-5-yl)methyl)amino)phenyl)acrylamide]
15 | < 1000 | O=C(/C=C/c1ccccc1NCC1CCOC1)NO (stereo not shown) [Example I-106, (E)-N-hydroxy-3-(2-(((tetrahydrofuran-3-yl)methyl)amino)phenyl)acrylamide]
16 | < 1000 | NC(=O)C1CCC2(CC1)CCN(c1ccccc1/C=C/C(=O)NO)CC2 [Example I-108, (E)-3-(2-(3-(hydroxyamino)-3-oxoprop-1-en-1-yl)phenyl)-3-azaspiro[5.5]undecane-9-carboxamide]
17 | < 1000 | CC(C)(C)OC(=O)N1CCCC2(CCN(c3ccccc3/C=C/C(=O)NO)CC2)C1 [Example I-109, tert-butyl (E)-9-(2-(3-(hydroxyamino)-3-oxoprop-1-en-1-yl)phenyl)-2,9-diazaspiro[5.5]undecane-2-carboxylate]

Row | IC50 [nM] | SMILES
18 | < 1000 | O=C(/C=C/c1ccccc1N1CCC2(CCCNC2)CC1)NO [Example I-110, (E)-3-(2-(2,9-diazaspiro[5.5]undecan-9-yl)phenyl)-N-hydroxyacrylamide 2,2,2-trifluoroacetate]
19 | < 1000 | CC(C)(C)OC(=O)N1CCC2(CC1)CCN(c1ccccc1/C=C/C(=O)NO)C2 [Example I-111, tert-butyl (E)-2-(2-(3-(hydroxyamino)-3-oxoprop-1-en-1-yl)phenyl)-2,8-diazaspiro[4.5]decane-8-carboxylic]
20 | < 1000 | CC(C)(C)OC(=O)N1CCC2(CCN(c3ccccc3/C=C/C(=O)NO)C2)C1 (stereo not shown) [Example I-112, tert-butyl (E)-7-(2-(3-(hydroxyamino)-3-oxoprop-1-en-1-yl)phenyl)-2,7-dizazspiro[4.4]nonane-2-carboxylate]
21 | < 1000 | O=C(/C=C/c1ccccc1N1CC2(CC(NC(=O)OCc3ccccc3)CS2(=O)=O)C1)NO (stereo not shown) [Example I-114, benzyl (E)-(2-(2-(3-(hydroxyamino)-3-oxoprop-1-en-1-yl)phenyl)-5,5-dioxido-5-thia-2-azaspiro[3,4]octan-7-yl)carbamate]
22 | < 1000 | O=C(/C=C/c1ccccc1NCc1nc2ccc(CCCO)cc2[nH]1)NO [Example I-116, (E)-N-hydroxy-3-(2-(((6-(3-hydroxypropyl)-1H-benzo[d]imidazol-2-yl)methyl)amino)phenyl)acrylamide]
23 | < 1000 | NC1CC2(CN(c3ccccc3/C=C/C(=O)NO)C2)S(=O)(=O)C1 (stereo not shown) [Example I-117, (E)-3-(2-(7-amino-5,5-dioxido-5-thia-2-azaspiro[3.4]octan-2-yl)phenyl)-N-hydroxyacrylamide 2,2,2-trifluoroacetate]
24 | < 1000 | CC(C)N(C(=O)c1cccc(C(F)(F)F)c1)c1ccccc1/C=C/C(=O)NO [Example I-118, (E)-N-(2-(3-(hydroxyamino)-3-oxoprop-1-en-1-yl)phenyl)-N-isopropyl-3-(trifluoromethyl)benzamide]
25 | < 1000 | CN(Cc1cccc(C(F)(F)F)c1)c1ccccc1/C=C/C(=O)NO [Example I-119, (E)-N-hydroxy-3-(2-(methyl(3-(trifluoromethyl)benzyl)amino)phenyl)acrylamide]
26 | < 1000 | O=C(/C=C/c1ccccc1NCc1ccc(-c2ccccc2)c(C(F)(F)F)c1)NO [Example I-120, (E)-N-hydroxy-3-(2-(((2-(trifluoromethyl)-[1,1′-biphenyl]-4-yl)methyl)amino)phenyl)acrylamide]
27 | < 1000 | Cn1c(CNc2ccccc2/C=C/C(=O)NO)nc(Cl)c1Cl [Example I-121, (E)-3-(2-(((4,5-dichloro-1-methyl-1H-imidazol-2-yl)methyl)amino)phenyl)-N-hyroxyacrylamide]
28 | < 1000 | O=C(/C=C/c1cccnc1NC(=O)c1cccc(C(F)(F)F)c1)NO [Example I-122]
29 | < 1000 | O=C(/C=C/c1ncccc1NC(=O)c1cccc(C(F)(F)F)c1)NO [Example I-124, (E)-N-(2-(3-(hydroxyamino)-3-oxoprop-1-en-1-yl)pyridin-3-yl)-3-(trifluoromethyl)benzamide]
30 | < 1000 | CCCCC(=O)NC1CCN(c2ccccc2/C=C/C(=O)NO)CC1 [Example I-125, (E)-N-(1-(2-(3-(hydroxyamino)-3-oxoprop-1-en-1-yl)phenyl)piperidin-4-yl)pentanamide]
31 | < 1000 | O=C(/C=C/c1ccccc1N1CCC(NC(=O)C2CCCCC2)CC1)NO [Example I-126, (E)-N-(1-(2-(3-(hydroxyamino)-3-oxoprop-1-en-1-yl)phenyl)piperidin-4-yl)cyclohexanecarboxamide]
32 | < 1000 | CS(=O)(=O)N1CCCC(C(=O)NC2CCN(c3ccccc3/C=C/C(=O)NO)CC2)C1 (stereo not shown) [Example I-127]
33 | < 1000 | O=C(/C=C/c1ccccc1N1CCC(NC(=O)Cc2cccs2)CC1)NO [Example I-128, (E)-N-hydroxy-3-(2-(4-(2-(thiophen-2-yl)acetamido)piperidin-1-yl)phenyl)acrylamide]
34 | < 1000 | O=C(/C=C/c1ccccc1N1CCC(NC(=O)CSc2ccc(F)cc2)CC1)NO [Example I-129, (E)-3-(2-(4-(2-((4-fluorophenyl)thio)acet-amido)piperidin-1-yl)phenyl)-N-hydroxyacrylamide]
